# Measured values reported in patent US8802712B2, “Pyrazoloquinolines” (Merck Patent GmbH, priority 2010, dated 2014).
# Biological target: DNA-PK (Homo sapiens (Human), UniProt P78527)
# Assay: DNA-PK/Biochemical Assay (FlashPlate kinase assay)
# Details: 5 μM ATP, 90 min, room temperature
# Procedure: The kinase assay was carried out in streptavidin-coated […] microtitre FlashPlates®. To this end, 1.5 μg of the DNA-PK/protein complex and 100 ng of biotinylated substrate, such as, for example, […] biotin-NH2 (“biotin-DNA-PK peptide”), in a total volume of 36.5 μl (34.25 mM HEPES/KOH, 7.85 mM Tris-HCl, 68.5 mM KCl, 5 μM ATP, 6.85 mM MgCl2, 0.5 mM EDTA, 0.14 mM EGTA, 0.69 mM DTT, pH 7.4), were incubated at room temperature for 90 min with 500 ng of DNA from calf thymus, 0.1 μCi of 33P-ATP and 1.8% of DMSO per well with or without the test compound. The reaction was stopped using 50 μl/well of 200 mM EDTA. After incubation for a further 30 min at room temperature, the liquid was removed. Each well was washed three times with 100 μl of 0.9% sodium chloride solution. A non-specific reaction (blank value) was determined using 10 μM of a proprietary kinase inhibitor. The radioactivity measurement was carried out by means of a TopCount. IC50 values were calculated in RS1. • Literature: Kashishian et al. (2003) Molecular Cancer Therapeutics 1257.
row,Structure (SMILES),IC50
1,"COc1cc2ncc3c(c(-c4ccc(C#N)cc4)nn3C)c2cc1OCc1ccnc(C#N)c1 [Compound 38, 4-[1-(4-Cyanophenyl)-7-methoxy-3-methyl-3H-pyrazolo[3,4-c]quinolin-8-yl-oxymethyl]pyridine-2-nitrile]",100 to 500 nM
2,"COc1cc2ncc3c(c(-c4ccc(C#N)cc4)nn3C)c2cc1OCc1nccs1 [Compound 39, 4-[7-Methoxy-3-methyl-8-(thiazol-2-ylmethoxy)-3H-pyrazolo[3,4-c]quinolin-1-yl]-benzonitrile]",< 100 nM
3,"COc1cc2ncc3c(c(-c4ccc(C#N)cc4)nn3C)c2cc1OCc1cccc(N(C)C)c1 [Compound 41, 4-[8-(3-Dimethylamino-benzyloxy)-7-methoxy-3-methyl-3H-pyrazolo[3,4-c]-quinolin-1-yl]benzonitrile]",100 to 500 nM
4,"COc1cc2ncc3c(c(-c4ccc(C#N)cc4)nn3C)c2cc1OCc1cscn1 [Compound 42, 4-[7-Methoxy-3-methyl-8-(thiazol-4-ylmethoxy)-3H-pyrazolo[3,4-c]quinolin-1-yl]-benzonitrile]",< 100 nM
5,"COc1cc2ncc3c(c(-c4ccc(C#N)cc4)nn3C)c2cc1OCc1cncs1 [Compound 43, 4-[7-Methoxy-3-methyl-8-(thiazol-5-ylmethoxy)-3H-pyrazolo[3,4-c]quinolin-1-yl]-benzonitrile]",< 100 nM
6,"COc1cc2ncc3c(c(-c4ccc(C#N)cc4)nn3C)c2cc1OCc1cccc(CN2CCN(C)CC2)c1 [Compound 44, 4-{7-Methoxy-3-methyl-8-[3-(4-methylpiperazin-1-yl-methyl)benzyloxy]-3H-pyrazolo[3,4-c]quinolin-1-yl}-benzonitrile]",> 500 nM
7,"COc1cc2ncc3c(c(-c4ccc(C#N)cc4)nn3C)c2cc1OCc1cccc(-c2csc(C)n2)c1 [Compound 45, 4-{7-Methoxy-3-methyl-8-[3-(2-methylthiazol-4-yl)-benzyloxy]-3H-pyrazolo-[3,4-c]quinolin-1-yl}-benzonitrile]",100 to 500 nM
8,"COc1cc2ncc3c(c(-c4ccc(C#N)cc4)nn3C)c2cc1OC(C(=O)NCCN(C)C)c1ccc(F)cc1 (stereo not drawn) [Compound 49, 2-[1-(4-Cyano-phenyl)-7-methoxy-3-methyl-3H-pyrazolo-[3,4-c]quinolin-8-yl-oxy]-N-(2-dimethyl-aminoethyl)-2-(4-fluorophenyl)-acetamide]",100 to 500 nM
9,"COc1cc2ncc3c(c(-c4ccc(C#N)cc4)nn3C)c2cc1OC(C(=O)NCCN1CCNCC1)c1ccc(F)cc1 (stereo not drawn) [Compound 50, 2-[1-(4-Cyano-phenyl)-7-methoxy-3-methyl-3H-pyrazolo-[3,4-c]quinolin-8-yl-oxy]-2-(4-fluoro-phenyl)-N-(2 - piperazin-1-ylethyl)-acetamide]",> 500 nM
10,"COc1cc2ncc3c(c(-c4ccc(C#N)cc4)nn3C)c2cc1OC(C(=O)NOCC#N)c1ccc(F)cc1 (stereo not drawn) [Compound 51, N-Cyanomethoxy-2-[1-(4-cyanophenyl)-7-methoxy-3-methyl-3H-pyrazolo[3,4-c]-quinolin-8-yloxy]-2-(4-fluorophenyl)-acetamide]",100 to 500 nM
11,"COc1cc2ncc3c(c(-c4ccc(C#N)cc4)nn3C)c2cc1OC(C(=O)NCCS(N)(=O)=O)c1ccc(F)cc1 (stereo not drawn) [Compound 52, 2-[1-(4-Cyano-phenyl)-7-methoxy-3-methyl-3H-pyrazolo-[3,4-c]quinolin-8-yl-oxy]-2-(4-fluoro-phenyl)-N-(2-sulfamoylethyl)-acetamide]",100 to 500 nM
12,"COc1cc2ncc3c(c(-c4ccc(C#N)cc4)nn3C)c2cc1OC(C(=O)NO)c1ccc(F)cc1 (stereo not drawn) [Compound 53, 2-[1-(4-Cyano-phenyl)-7-methoxy-3-methyl-3H-pyrazolo-[3,4-c]quinolin-8-yloxy]-2-(4-fluoro-phenyl)-N-hydroxy-acetamide]",< 100 nM
13,"COc1cc2ncc3c(c(-c4ccc(C#N)cc4)nn3C)c2cc1OC(C(=O)NC(=N)N)c1ccc(F)cc1 (stereo not drawn) [Compound 54, N-[2-[1-(4-Cyano-phenyl)-7-methoxy-3-methyl-3H-pyrazolo-[3,4-c]quinolin-8-yl-oxy]-2-(4-fluoro-phenyl)acetyl]-guanidine]",< 100 nM
14,"COCCNC(=O)C(Oc1cc2c(cc1OC)ncc1c2c(-c2ccc(C#N)cc2)nn1C)c1ccc(F)cc1 (stereo not drawn) [Compound 55, 2-[1-(4-Cyano-phenyl)-7-methoxy-3-methyl-3H-pyrazolo-[3,4-c]quinolin-8-yloxy]-2-(4-fluoro-phenyl)-N-(2-methoxyethyl)-acetamide]",< 100 nM
15,"COc1cc2ncc3c(c(-c4ccc(C#N)cc4F)nn3Cc3cccnc3)c2cc1OC [Compound 64, 4-(7,8-Dimethoxy-3-pyridin-3-ylmethyl-3H-pyrazolo[3,4-c]-quinolin-1-yl)-3-fluoro-benzonitrile]",> 500 nM

# Second part, the compound after the results:
row,IC50,Structure (SMILES)
1,> 500 nM,"COc1cc2c(cc1OCCN(C)C)ncc1c2c(-c2ccc(C#N)cc2)nn1C [Compound 46, 4-[7-(2-Dimethylamino-ethoxy)-8-methoxy-3-methyl-3H-pyrazolo[3,4-c]quinolin-1-yl]benzonitrile]"
2,> 500 nM,"COc1cc2c(cc1OCC(O)CO)ncc1c2c(-c2ccc(C#N)cc2)nn1C (stereo not drawn) [Compound 47, 4-[7-(2,3-Dihydroxypropoxy)-8-methoxy-3-methyl-3H - pyrazolo[3,4-c]quinolin-1-yl]-benzonitrile]"
3,100 to 500 nM,"CCn1nc(-c2ccc(C#N)cc2F)c2c3cc(OC)c(OC)cc3ncc21 [Compound 57, 4-(3-Ethyl-7,8-dimethoxy-3H-pyrazolo[3,4-c]quinolin-1-yl)-3-fluorobenzonitrile]"
4,> 500 nM,"CCCCn1nc(-c2ccc(C#N)cc2)c2c3cc(OC)c(OC)cc3ncc21 [Compound 58, 4-(3-Butyl-7,8-dimethoxy-3H-pyrazolo[3,4-c]quinolin-1-yl)-benzonitrile]"
5,100 to 500 nM,"CCCn1nc(-c2ccc(C#N)cc2)c2c3cc(OC)c(OC)cc3ncc21 [Compound 59, 4-(7,8-Dimethoxy-3-propyl-3H-pyrazolo[3,4-c]quinolin-1-yl)-benzonitrile]"
6,100 to 500 nM,"COc1cc2ncc3c(c(-c4ccc(C#N)cc4)nn3C(C)C)c2cc1OC [Compound 60, 4-(3-Isopropyl-7,8-dimethoxy-3H-pyrazolo[3,4-c]quinolin-1-yl)benzonitrile]"
7,> 500 nM,"COc1cc2ncc3c(c(-c4ccc(C#N)cc4)nn3CC(C)C)c2cc1OC [Compound 61, 4-(3-lsobutyl-7,8-dimethoxy-3H-pyrazolo[3,4-c]quinolin-1-yl)benzonitrile]"
8,100 to 500 nM,"COc1cc2ncc3c(c(-c4ccc(C#N)cc4)nn3C3CC3)c2cc1OC [Compound 62, 4-(3-Cyclopropyl-7,8-dimethoxy-3H-pyrazolo[3,4-c]-quinolin-1-yl)benzonitrile]"
9,100 to 500 nM,"C=CCn1nc(-c2ccc(C#N)cc2)c2c3cc(OC)c(OC)cc3ncc21 [Compound 63, 4-(3-Allyl-7,8-dimethoxy-3H-pyrazolo[3,4-c]quinolin-1-yl)-benzonitrile]"
10,100 to 500 nM,"COc1cc2ncc3c(c(-c4ccc(C#N)cc4)nn3C#N)c2cc1OC [Compound 65, 1-(4-Cyanophenyl)-7,8-dimethoxypyrazolo[3,4-c]-quinoline-3-carbonitrile]"
11,< 100 nM,"COc1cc2ncc3c(c(-c4ccc(C#N)cc4)nn3CC#N)c2cc1OC [Compound 66, 4-(3-Cyanomethyl-7,8-dimethoxy-3H-pyrazolo[3,4-c]-quinolin-1-yl)benzonitrile]"
12,100 to 500 nM,"COc1cc2ncc3c(c(-c4ccc(C#N)cc4)nn3CC(=O)O)c2cc1OC [Compound 67, [1-(4-Cyanophenyl)-7,8-dimethoxypyrazolo[3,4-c]-quinolin-3-yl]acetic acid]"
